Assay results published in PubChem BioAssay (NCI).
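How tested: cells in 96-well plates exposed to compound for 48 hours at five concentrations. TGI: total growth inhibition.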

How the values were obtained:
Assay in all cases: NCI tumour cell line growth inhibition, 48 h
[1] = system: 786-0 renal
[2] = system: A498 renal
[3] = system: A549 NSCLC
[4] = system: ACHN renal
[5] = system: BT-549 breast
[6] = system: CAKI-1 renal
[7] = system: CCRF-CEM leukemia
[8] = system: COLO 205 colon
[9] = system: DU-145 prostate
[10] = system: EKVX NSCLC
[11] = system: HCC-2998 colon
[12] = system: HCT-15 colon
[13] = system: HL-60(TB) leukemia
[14] = system: HOP-62 NSCLC
[15] = system: HOP-92 NSCLC
[16] = system: HS 578T breast
[17] = system: HT29 colon
[18] = system: IGROV1 ovarian
[19] = system: K-562 leukemia
[20] = system: KM12 colon
[21] = system: LOX IMVI melanoma
[22] = system: M14 melanoma
[23] = system: MALME-3M melanoma
[24] = system: MCF7 breast
[25] = system: MDA-MB-231 breast
[26] = system: MDA-MB-435
[27] = system: MDA-N
[28] = system: MOLT-4 leukemia
[29] = system: NCI-H23 lung
[30] = system: NCI-H460 lung
[31] = system: NCI-H522 lung
[32] = system: NCI/ADR-RES ovarian
[33] = system: OVCAR-3 ovarian
[34] = system: OVCAR-4 ovarian
[35] = system: OVCAR-5 ovarian
[36] = system: OVCAR-8 ovarian
[37] = system: PC-3 prostate
[38] = system: RPMI-8226 leukemia
[39] = system: SF-268 CNS
[40] = system: SF-295 CNS
[41] = system: SK-MEL-2 melanoma
[42] = system: SK-MEL-28 melanoma
[43] = system: SK-MEL-5 melanoma
[44] = system: SK-OV-3 ovarian
[45] = system: SN12C renal
[46] = system: SNB-19 CNS
[47] = system: SR leukemia
[48] = system: SW-620 colon
[49] = system: T-47D breast
[50] = system: TK-10 renal
[51] = system: U251 CNS
[52] = system: UACC-257 melanoma
[53] = system: UACC-62 melanoma
[54] = system: UO-31 renal
[55] = system: HCT-116 colon
[56] = system: NCI-H226 lung
[57] = system: RXF 393 renal
[58] = system: SF-539 CNS
[59] = system: SNB-75 CNS

Cc1cc(C)nc(NS(=O)(=O)c2ccc(Nc3c4ccccc4nc4c(C(=O)NNCCO)cccc34)cc2)n1 showed a TGI [1] of over 100 µM, a TGI [2] of over 100 µM and a TGI [3] of over 100 µM. The TGI [4] was over 100 µM, the TGI [5] was over 100 µM and the TGI [6] was over 100 µM. For the same compound, the TGI [7] was over 100 µM, the TGI [8] was over 100 µM and the TGI [9] was over 100 µM. For the same compound, the TGI [10] was over 100 µM, the TGI [11] was over 100 µM and the TGI [12] was over 100 µM. It also gave a TGI [13] of over 100 µM, a TGI [14] of over 100 µM and a TGI [15] of over 100 µM. The TGI [16] was over 100 µM, the TGI [17] was over 100 µM and the TGI [18] was over 100 µM. The TGI [19] was over 100 µM, the TGI [20] was over 100 µM and the TGI [21] was over 100 µM. For the same compound, the TGI [22] was over 100 µM, the TGI [23] was over 100 µM and the TGI [24] was over 100 µM. It also gave a TGI [25] of over 100 µM, a TGI [26] of over 100 µM and a TGI [27] of over 100 µM. It also gave a TGI [28] of over 100 µM, a TGI [29] of over 100 µM and a TGI [30] of over 100 µM. For the same compound, the TGI [31] was over 100 µM, the TGI [32] was over 100 µM and the TGI [33] was over 100 µM. It also gave a TGI [34] of over 100 µM, a TGI [35] of over 100 µM and a TGI [36] of over 100 µM. It also gave a TGI [37] of over 100 µM, a TGI [38] of over 100 µM and a TGI [39] of over 100 µM. For the same compound, the TGI [40] was over 100 µM, the TGI [41] was over 100 µM and the TGI [42] was over 100 µM. The TGI [43] was over 100 µM, the TGI [44] was over 100 µM and the TGI [45] was over 100 µM. For the same compound, the TGI [46] was over 100 µM, the TGI [47] was over 100 µM and the TGI [48] was over 100 µM. The TGI [49] was over 100 µM, the TGI [50] was over 100 µM and the TGI [51] was over 100 µM. For the same compound, the TGI [52] was over 100 µM, the TGI [53] was over 100 µM and the TGI [54] was over 100 µM.

Compound C=C1C(=O)OC2/C=C(\CO)C3OC3C3OC3(C)CC(OC(=O)/C(=C/C)CO)C12 (centres undefined) has a TGI [1] of over 100 µM, a TGI [2] of over 100 µM and a TGI [3] of over 100 µM. For the same compound, the TGI [4] was over 100 µM, the TGI [5] was over 100 µM and the TGI [6] was 77.4 µM. For the same compound, the TGI [7] was over 100 µM, the TGI [8] was over 100 µM and the TGI [9] was over 100 µM. It also gave a TGI [10] of over 100 µM, a TGI [11] of over 100 µM and a TGI [55] of over 100 µM. For the same compound, the TGI [12] was over 100 µM, the TGI [14] was over 100 µM and the TGI [15] was over 100 µM. The TGI [16] was over 100 µM, the TGI [17] was over 100 µM and the TGI [18] was over 100 µM. For the same compound, the TGI [19] was 65.4 µM, the TGI [20] was over 100 µM and the TGI [21] was over 100 µM. For the same compound, the TGI [22] was over 100 µM, the TGI [23] was 68.6 µM and the TGI [24] was over 100 µM. The TGI [25] was over 100 µM, the TGI [26] was over 100 µM and the TGI [27] was over 100 µM. The TGI [28] was 84.3 µM, the TGI [56] was over 100 µM and the TGI [29] was over 100 µM. For the same compound, the TGI [30] was over 100 µM, the TGI [31] was 45.6 µM and the TGI [32] was over 100 µM. For the same compound, the TGI [33] was over 100 µM, the TGI [34] was over 100 µM and the TGI [35] was over 100 µM. It also gave a TGI [36] of over 100 µM, a TGI [37] of over 100 µM and a TGI [38] of 45.7 µM. For the same compound, the TGI [57] was over 100 µM, the TGI [39] was over 100 µM and the TGI [40] was over 100 µM. For the same compound, the TGI [58] was over 100 µM, the TGI [41] was over 100 µM and the TGI [42] was over 100 µM. The TGI [43] was over 100 µM, the TGI [44] was over 100 µM and the TGI [45] was over 100 µM. It also gave a TGI [46] of over 100 µM, a TGI [59] of over 100 µM and a TGI [47] of 89 µM. It also gave a TGI [48] of over 100 µM, a TGI [49] of over 100 µM and a TGI [50] of over 100 µM. For the same compound, the TGI [51] was over 100 µM, the TGI [52] was over 100 µM and the TGI [53] was over 100 µM. It also gave a TGI [54] of over 100 µM.

Compound COc1ccc2nc3c([N+](=O)[O-])ccc4c3c(c2c1)N=CN4CCCN(C)C has a TGI [1] of 14.3 µM, a TGI [2] of 21.4 µM and a TGI [3] of 13.4 µM. For the same compound, the TGI [4] was 15.3 µM, the TGI [5] was 23.5 µM and the TGI [6] was 7.26 µM. For the same compound, the TGI [7] was 3.18 µM, the TGI [8] was 5.77 µM and the TGI [9] was 13.9 µM. The TGI [10] was 16.2 µM, the TGI [11] was 6.54 µM and the TGI [55] was 14.1 µM. The TGI [12] was 15.2 µM, the TGI [13] was 6.27 µM and the TGI [14] was 15.1 µM. It also gave a TGI [15] of 8.94 µM, a TGI [16] of 27.5 µM and a TGI [17] of 12.5 µM. For the same compound, the TGI [18] was 6.16 µM, the TGI [19] was 2.19 µM and the TGI [20] was 13 µM. The TGI [21] was 8.78 µM, the TGI [22] was 23.6 µM and the TGI [23] was 28.2 µM. It also gave a TGI [24] of 11.6 µM, a TGI [25] of 8.27 µM and a TGI [26] of 20.1 µM. For the same compound, the TGI [27] was 21.8 µM, the TGI [28] was 0.757 µM and the TGI [56] was 24.9 µM. It also gave a TGI [29] of 18.7 µM, a TGI [30] of 16.3 µM and a TGI [31] of 9.61 µM. For the same compound, the TGI [32] was 18 µM, the TGI [33] was 20.2 µM and the TGI [35] was 25.5 µM. The TGI [36] was 25.7 µM, the TGI [37] was 13 µM and the TGI [38] was 0.772 µM. The TGI [39] was 17.8 µM, the TGI [40] was 18.2 µM and the TGI [58] was 13 µM. The TGI [41] was 22.8 µM, the TGI [42] was 31.5 µM and the TGI [43] was 12.1 µM. The TGI [44] was 25.3 µM, the TGI [45] was 11.5 µM and the TGI [46] was 22.2 µM. The TGI [59] was 11.1 µM, the TGI [47] was 1.03 µM and the TGI [48] was over 44.3 µM. For the same compound, the TGI [49] was 27.4 µM, the TGI [50] was 6.51 µM and the TGI [51] was 24.3 µM. It also gave a TGI [52] of 17.2 µM, a TGI [53] of 28.1 µM and a TGI [54] of 10.7 µM.
